Results taken from US20230286970A1, “NOVEL OXADIAZOLE-BASED SELECTIVE HDAC6 INHIBITORS” (ITALFARMACO S.P.A., priority 2020, published 2023).

What was measured:
recombinant human HDAC6 = recombinant human HDAC6 (Homo sapiens (Human), UniProt Q9UBN7); test: Enzymatic screening, HDAC6 inhibition (fluorogenic FdL_G substrate); type: biochemical
How it was run: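 Enzyme was preincubated with compound (8 doses, triplicate, 1% DMSO) in 25 mM Tris-HCl pH 8, 130 mM NaCl, 0.05% Tween-20, 10% glycerol, with BSA. A FLUOR DE LYS-Green substrate was then added, and fluorescence was read after developer plus 2 μM TSA.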

recombinant human HDAC1 = recombinant human HDAC1 (Homo sapiens (Human), UniProt Q13547); test: Enzymatic screening, HDAC1 inhibition (fluorogenic FdL_G substrate); type: biochemical
How it was run: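 Recombinant human HDAC1 inhibition was measured fluorometrically using the FLUOR DE LYS-Green (FdL_G) substrate. Compounds at 8 doses (1% DMSO final) in Tris-HCl pH 8 buffer with NaCl, Tween-20 and glycerol were preincubated in triplicate with enzyme and 1 mg/mL BSA, then given substrate. Developer I plus 2 μM TSA was added, and fluorescence read after 25 minutes in the dark.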

recombinant human HDAC1, sequence (Q13547 whole entry): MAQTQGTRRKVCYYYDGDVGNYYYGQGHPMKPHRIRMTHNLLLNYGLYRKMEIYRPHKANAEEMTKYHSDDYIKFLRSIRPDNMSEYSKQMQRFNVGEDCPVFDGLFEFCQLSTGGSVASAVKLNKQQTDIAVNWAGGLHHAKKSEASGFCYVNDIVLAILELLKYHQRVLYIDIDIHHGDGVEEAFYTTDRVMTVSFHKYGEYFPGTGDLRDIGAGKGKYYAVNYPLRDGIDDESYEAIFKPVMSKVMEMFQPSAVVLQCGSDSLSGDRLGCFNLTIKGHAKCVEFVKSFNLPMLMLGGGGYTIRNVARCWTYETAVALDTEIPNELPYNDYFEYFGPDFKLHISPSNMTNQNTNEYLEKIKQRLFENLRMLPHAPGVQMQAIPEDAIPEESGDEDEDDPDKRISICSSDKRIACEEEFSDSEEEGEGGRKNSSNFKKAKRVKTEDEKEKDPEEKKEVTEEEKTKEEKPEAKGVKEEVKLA
recombinant human HDAC6, sequence (Q9UBN7 whole entry): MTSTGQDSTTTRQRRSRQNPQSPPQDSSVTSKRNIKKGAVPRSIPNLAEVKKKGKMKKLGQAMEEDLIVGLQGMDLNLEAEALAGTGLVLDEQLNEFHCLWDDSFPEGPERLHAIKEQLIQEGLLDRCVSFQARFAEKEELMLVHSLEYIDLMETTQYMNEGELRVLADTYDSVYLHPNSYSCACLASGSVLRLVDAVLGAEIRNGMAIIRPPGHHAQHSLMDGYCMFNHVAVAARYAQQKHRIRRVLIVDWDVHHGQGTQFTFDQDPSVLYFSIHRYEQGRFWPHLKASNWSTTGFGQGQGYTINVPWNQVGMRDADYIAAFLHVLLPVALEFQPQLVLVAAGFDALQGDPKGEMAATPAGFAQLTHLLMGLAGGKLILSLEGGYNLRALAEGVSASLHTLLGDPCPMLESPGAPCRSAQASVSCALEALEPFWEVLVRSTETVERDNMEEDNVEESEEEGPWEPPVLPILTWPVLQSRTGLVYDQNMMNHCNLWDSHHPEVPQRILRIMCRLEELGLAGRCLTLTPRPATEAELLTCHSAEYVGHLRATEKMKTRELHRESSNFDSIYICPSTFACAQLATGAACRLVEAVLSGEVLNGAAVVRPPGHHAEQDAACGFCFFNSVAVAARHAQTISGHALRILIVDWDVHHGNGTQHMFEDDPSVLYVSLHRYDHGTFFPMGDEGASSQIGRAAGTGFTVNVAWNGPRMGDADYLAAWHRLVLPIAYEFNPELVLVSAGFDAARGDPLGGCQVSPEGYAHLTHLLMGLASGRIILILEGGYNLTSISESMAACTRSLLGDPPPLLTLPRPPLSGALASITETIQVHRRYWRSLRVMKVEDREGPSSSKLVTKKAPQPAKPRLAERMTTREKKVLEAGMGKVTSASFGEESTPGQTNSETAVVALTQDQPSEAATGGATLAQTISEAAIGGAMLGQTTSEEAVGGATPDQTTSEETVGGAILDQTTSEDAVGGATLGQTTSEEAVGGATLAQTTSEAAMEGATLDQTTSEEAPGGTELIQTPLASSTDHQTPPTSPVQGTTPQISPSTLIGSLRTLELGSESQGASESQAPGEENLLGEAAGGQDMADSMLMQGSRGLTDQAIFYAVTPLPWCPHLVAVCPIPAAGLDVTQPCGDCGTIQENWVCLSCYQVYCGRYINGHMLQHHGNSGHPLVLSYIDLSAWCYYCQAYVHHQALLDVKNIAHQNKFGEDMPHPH

Compound	IC50 (recombinant human HDAC6)	IC50 (recombinant human HDAC1)
CC(c1ccc(-c2nnc(C(F)F)o2)cn1)n1cc(-c2cccc(NC(=O)N3CCOCC3)c2)nn1 (centres unmarked) [compound 66, N-(3-(1-(1-(5-(5-(difluoromethyl)-1,3,4-oxadiazol-2-yl)pyridin-2-yl)ethyl)-1H-1,2,3-triazol-4-yl)phenyl)morpholine-4-carboxamide]	28 nM	> 200000 nM
[2H]C([2H])(c1ccc(-c2nnc(C(F)F)o2)cc1)n1cc(-c2ccc(N)nc2)nn1 [compound 356, 5-[1-[dideuterio-[4-[5-(difluoromethyl)-1,3,4-oxadiazol-2-yl]phenyl]methyl]triazol-4-yl]pyridin-2-amine]	43 nM	> 1e+06 nM
Nc1nc2ccc(-c3cn(Cc4cc(F)c(-c5nnc(C(F)F)o5)cc4F)nn3)cc2s1 [compound 343, 6-[1-[[4-[5-(difluoromethyl)-1,3,4-oxadiazol-2-yl]-2,5-difluorophenyl]methyl]triazol-4-yl]-1,3-benzothiazol-2-amine]	31 nM	> 1e+06 nM
Nc1ccc(-c2cn(C(CCCN3CCCCC3)c3ccc(-c4nnc(C(F)F)o4)cc3)nn2)cn1 (centres unmarked) [compound 303, 5-[1-[1-[4-[5-(difluoromethyl)-1,3,4-oxadiazol-2-yl]phenyl]-4-piperidin-1-ylbutyl]triazol-4-yl]pyridin-2-amine]	62 nM	> 1e+06 nM
Nc1ccc(-c2cn(C(CC3CCC3)c3ccc(-c4nnc(C(F)F)o4)cc3)nn2)cn1 (centres unmarked) [Compd. 242, 5-(1-(2-cyclobutyl-1-(4-(5-(difluoromethyl)-1,3,4-oxadiazol-2-yl)phenyl)ethyl)-1H-1,2,3-triazol-4-yl)pyridin-2-amine]	252 nM	> 200000 nM
Fc1ccccc1-c1nnn(Cc2ccc(-c3nnc(C(F)F)o3)cc2)n1 [compound 181, 2-(difluoromethyl)-5-(4-((5-(2-fluorophenyl)-2H-tetrazol-2-yl)methyl)phenyl)-1,3,4-oxadiazole]	92 nM	> 200000 nM
O=C1NCc2ccc(-c3cn(Cc4ccc(-c5nnc(C(F)F)o5)cn4)cn3)cc21 [Compd. 292, 6-(1-((5-(5-(difluoromethyl)-1,3,4-oxadiazol-2-yl)pyridin-2-yl)methyl)-1H-imidazol-4-yl)isoindolin-1-one]	30 nM	> 200000 nM
Cn1c(N)nc2cc(-c3nnn(Cc4ncc(-c5nnc(C(F)F)o5)cc4F)n3)ccc21 [compound 370, 5-[2-[[5-[5-(difluoromethyl)-1,3,4-oxadiazol-2-yl]-3-fluoropyridin-2-yl]methyl]tetrazol-5-yl]-1-methylbenzimidazol-2-amine]	23 nM	> 1e+06 nM
Nc1ccc(-c2cn(C(CCCO)c3ccc(-c4nnc(C(F)F)o4)cc3)nn2)cn1 (centres unmarked) [compound 335, 4-(4-(6-aminopyridin-3-yl)-1H-1,2,3-triazol-1-yl)-4-(4-(5-(difluoromethyl)-1,3,4-oxadiazol-2-yl)phenyl)butan-1-ol]	62 nM	> 1e+06 nM
O=C1Nc2cc(-c3nnn(Cc4ccc(-c5nnc(C(F)F)o5)cc4)n3)ccc2NC12CCCCC2 [compound 209, 6′-(2-(4-(5-(difluoromethyl)-1,3,4-oxadiazol-2-yl)benzyl)-2H-tetrazol-5-yl)-1′,4′-dihydro-3′H-spiro[cyclohexane-1,2′-quinoxalin]-3′-one]	133 nM	> 200000 nM
Fc1cc(-c2nnn(Cc3ccc(-c4nnc(C(F)F)o4)cc3)n2)ccc1N1CCNCC1 [compound 224, 2-(difluoromethyl)-5-(4-((5-(3-fluoro-4-(piperazin-1-yl)phenyl)-2H-tetrazol-2-yl)methyl)phenyl)-1,3,4-oxadiazole]	162 nM	> 200000 nM
O=C(c1cccc(-c2nnn(Cc3c(F)cc(-c4nnc(C(F)F)o4)cc3F)n2)c1)N1CCOCC1 [compound 112, (3-(2-(4-(5-(difluoromethyl)-1,3,4-oxadiazol-2-yl)-2,6-difluorobenzyl)-2H-tetrazol-5-yl)phenyl)(morpholino)methanone]	42 nM	> 200000 nM
CN1CCN(c2cccc(-c3nnn(Cc4ccc(-c5nnc(C(F)F)o5)cc4)n3)c2)CC1 [compound 58, 2-(difluoromethyl)-5-(4-((5-(3-(4-methylpiperazin-1-yl)phenyl)-2H-tetrazol-2-yl)methyl)phenyl)-1,3,4-oxadiazole]	25 nM	> 200000 nM
NC(=S)Nc1cccc(-c2cn(Cc3c(F)cc(-c4nnc(C(F)F)o4)cc3F)nn2)c1 [compound 175, 1-(3-(1-(4-(5-(difluoromethyl)-1,3,4-oxadiazol-2-yl)-2,6-difluorobenzyl)-1H-1,2,3-triazol-4-yl)phenyl)thiourea]	88 nM	> 200000 nM
Nc1nc2cc(-c3cnn(Cc4ccc(-c5nnc(C(F)F)o5)cc4)c3)ccc2[nH]1 [compound 332, 5-[1-[[4-[5-(difluoromethyl)-1,3,4-oxadiazol-2-yl]phenyl]methyl]pyrazol-4-yl]-1H-benzimidazol-2-amine]	67 nM	> 1e+06 nM
CC(C)(C)OC(=O)N1CCC2(C1)C(=O)Nc1ccc(-c3cn(Cc4ccc(-c5nnc(C(F)F)o5)cn4)nn3)cc12 (single isomer, unassigned) [compound 265, tert-butyl 5-[1-({5-[5-(difluoromethyl)-1,3,4-oxadiazol-2-yl]pyridin-2-yl}methyl)-1H-1,2,3-triazol-4-yl]-2-oxo-1,2-dihydrospiro[indole-3,3′-pyrrolidine]-1′-carboxylate]	26 nM	> 200000 nM

The remaining molecules from weak to strong by IC50 (recombinant human HDAC6), led by results:

IC50 (recombinant human HDAC6)	IC50 (recombinant human HDAC1)	Compound
491 nM	> 200000 nM	Cn1c(Sc2ccc(-c3nnc(C(F)F)o3)cc2)nnc1-c1ccc(N)nc1 [compound 285, 5-(5-((4-(5-(difluoromethyl)-1,3,4-oxadiazol-2-yl)phenyl)thio)-4-methyl-4H-1,2,4-triazol-3-yl)pyridin-2-amine]
348 nM	1e+06 nM	CCNc1ccc2cc(-c3nnn(Cc4ccc(-c5nnc(C(F)F)o5)c(F)c4)n3)ccc2n1 [compound 410, 6-(2-(4-(5-(difluoromethyl)-1,3,4-oxadiazol-2-yl)-3-fluorobenzyl)-2H-tetrazol-5-yl)-N-ethylquinolin-2-amine]
99 nM	> 200000 nM	CC(c1ccc(-c2nnc(C(F)F)o2)c(F)c1)n1cc(-c2cccc(NC(=O)N3CCOCC3)c2)nn1 (centres unmarked) [compound 189, N-(3-(1-(1-(4-(5-(difluoromethyl)-1,3,4-oxadiazol-2-yl)-3-fluorophenyl)ethyl)-1H-1,2,3-triazol-4-yl)phenyl)morpholine-4-carboxamide]
68 nM	> 200000 nM	Nc1ccc(-c2nnnn2Cc2ncc(-c3nnc(C(F)F)o3)cn2)cn1 [compound 290, 5-(1-((5-(5-(difluoromethyl)-1,3,4-oxadiazol-2-yl)pyrimidin-2-yl)methyl)-1H-tetrazol-5-yl)pyridin-2-amine]
39 nM	> 200000 nM	NCc1ccc(-c2cn(Cc3c(F)cc(-c4nnc(C(F)F)o4)cc3F)nn2)cn1 [compound 101, (5-(1-(4-(5-(difluoromethyl)-1,3,4-oxadiazol-2-yl)-2,6-difluorobenzyl)-1H-1,2,3-triazol-4-yl)pyridin-2-yl)methanamine]
37 nM	> 200000 nM	O=C(Nc1cc(-c2nnn(Cc3c(F)cc(-c4nnc(C(F)F)o4)cc3F)n2)ccc1O)N1CCOCC1 [compound 95, N-(5-(2-(4-(5-(difluoromethyl)-1,3,4-oxadiazol-2-yl)-2,6-difluorobenzyl)-2H-tetrazol-5-yl)-2-hydroxyphenyl)morpholine-4-carboxamide]
35 nM	> 200000 nM	CC1(C)CN(c2cccc(-c3cn(Cc4c(F)cc(-c5nnc(C(F)F)o5)cc4F)nn3)c2)C1=O [compound 92, 1-(3-(1-(4-(5-(difluoromethyl)-1,3,4-oxadiazol-2-yl)-2,6-difluorobenzyl)-1H-1,2,3-triazol-4-yl)phenyl)-3,3-dimethylazetidin-2-one]
34 nM	> 200000 nM	CC(=O)Nc1cccc(-c2cn(Cc3c(F)cc(-c4nnc(C(F)F)o4)cc3F)nn2)c1 [compound 70, N-(3-(1-(4-(5-(difluoromethyl)-1,3,4-oxadiazol-2-yl)-2,6-difluorobenzyl)-1H-1,2,3-triazol-4-yl)phenyl)acetamide]
34 nM	> 200000 nM	O=C(Nc1ccc(-c2cn(Cc3ncc(-c4nnc(C(F)F)o4)cn3)nn2)cn1)C(F)F [Compd. 88, N-(5-(1-((5-(5-(difluoromethyl)-1,3,4-oxadiazol-2-yl)pyrimidin-2-yl)methyl)-1H-1,2,3-triazol-4-yl)pyridin-2-yl)-2,2-difluoroacetamide]
28 nM	> 200000 nM	CN1CCN(C(=O)Nc2cccc(-c3cn(Cc4c(F)cc(-c5nnc(C(F)F)o5)cc4F)nn3)c2)CC1 [compound 63, N-(3-(1-(4-(5-(difluoromethyl)-1,3,4-oxadiazol-2-yl)-2,6-difluorobenzyl)-1H-1,2,3-triazol-4-yl)phenyl)-4-methylpiperazine-1-carboxamide]
25 nM	> 1e+06 nM	CS(=O)(=O)NCC[C@H](c1ccc(-c2nnc(C(F)F)o2)cc1)n1cc(-c2ccc(N)nc2)nn1 [compound 311, N-[(3R)-3-[4-(6-aminopyridin-3-yl)triazol-1-yl]-3-[4-[5-(difluoromethyl)-1,3,4-oxadiazol-2-yl]phenyl]propyl]methanesulfonamide]
8 nM	> 200000 nM	O=C1Nc2ccc(-c3cn(Cc4ccc(-c5nnc(C(F)F)o5)cn4)nn3)cc2C12CCCC2 [Compd. 26, 5′-(1-((5-(5-(difluoromethyl)-1,3,4-oxadiazol-2-yl)pyridin-2-yl)methyl)-1H-1,2,3-triazol-4-yl)spiro[cyclopentane-1,3′-indolin]-2′-one]
